Reference: patent EP4803094A2, “GLP-1/GIP DUAL, GLP-1/GCG DUAL AND GLP-1/GIP/GCG TRIPLE RECEPTOR AGONISTS” (Sun Pharmaceutical Industries Limited, priority 2023, dated 2024)
Marks after values point to notes of the source that are not given here.

Test system: Type 2 diabetes mouse (db/db) model
Assay: Efficacy study in db/db mice (blood glucose, body weight, food consumption)
Format: in vivo
Conditions: 10 nM/kg s.c. single dose, mean (n=6)
Experimental: The effect of the compounds as described herein on blood glucose, food intake and body weight were studied in mice. This study was performed in Type 2 diabetes mouse (db/db) model. The animals were divided into 9 treatment groups (n=6): a diabetic control group, Compound 12 (10 nM/kg), Compound 13 (10 nM/kg), Compound 26 (10 nM/kg), Compound 14 (10 nM/kg), Compound 15 (10 nM/kg), Compound 21 (10 nM/kg), Compound 22 (10 nM/kg), and Tirzepatide (10 nM/kg). Baseline blood glucose was measured from all the animals. All the animals were administered with test item subcutaneously. Blood glucose was measured at 4 hr, 8 hr, 12 hr, 24 hr, 48 hr, 72 hr, and 96 hr post treatment. Delta blood glucose (mM) was calculated. Body weight changes and cumulative food consumption were measured at 48 hr and 96 hr post treatment. Table 3. Effect on Blood Glucose

Which “Cumulative Food Consumption (g) 0-48 hr” value does the source give for `CC[C@H](C)[C@H](NC(=O)[C@H](Cc1ccccc1)NC(=O)[C@H](C)NC(=O)C(C)(C)NC(=O)[C@H](CCC(N)=O)NC(=O)[C@H](C)NC(=O)[C@H](CCCCNC(=O)COCCOCCNC(=O)C(C)(C)NC(=O)CC[C@H](NC(=O)CCCCCCCCCCCCCCCCC(=O)O)C(=O)O)NC(=O)[C@H](CCCCN)NC(=O)[C@H](CC(=O)O)NC(=O)[C@H](CC(C)C)NC(=O)[C@](C)(CC(C)C)NC(=O)[C@@H](NC(=O)[C@H](CO)NC(=O)[C@H](Cc1ccc(O)cc1)NC(=O)[C@H](CC(=O)O)NC(=O)[C@H](CO)NC(=O)[C@@H](NC(=O)[C@H](Cc1ccccc1)NC(=O)[C@@H](NC(=O)CNC(=O)[C@H](CCC(N)=O)NC(=O)C(C)(C)NC(=O)[C@@H](N)Cc1ccc(O)cc1)[C@@H](C)O)[C@@H](C)O)[C@@H](C)CC)C(=O)N[C@@H](CCC(=O)O)C(=O)N[C@@H](Cc1ccc(O)cc1)C(=O)N[C@@H](CC(C)C)C(=O)N[C@@H](CC(C)C)C(=O)N[C@@H](CCC(=O)O)C(=O)NCC(=O)NCC(=O)N1CCC[C@H]1C(=O)N[C@@H](CO)C(=O)N[C@@H](CO)C(=O)NCC(=O)N[C@@H](C)C(=O)N1CCC[C@H]1C(=O)N1CCC[C@H]1C(=O)N1CCC[C@H]1C(=O)N[C@@H](CO)C(N)=O` [Compound 12] here?
Its value is 3.1*** g.

What about the “Cumulative Food Consumption (g) 0-96 hr” value of the same compound?
Its value is 10.9*** g.

And the “Delta Blood Glucose” value (4 hr post treatment)?
Its value is -3.2 mM.

What about the “Delta Blood Glucose (mM)” value (8 hr post treatment) of the same compound?
Its value is -8.9* mM.

And the “Delta Blood Glucose (mM)” value (12 hr post treatment)?
The value was -13.2*** mM.

And the “Delta Blood Glucose (mM)” value (24 hr post treatment)?
The value was -13.7*** mM.

And the “Delta Blood Glucose (mM)” value (48 hr post treatment)?
The value was -11.4*** mM.

What about the “Body Weight Change (%) 48 hr” value of the same compound?
The value was -8.0*** %.

And the “Delta Blood Glucose (mM)” value (72 hr post treatment)?
The value was -9.2** mM.

What about the “Delta Blood Glucose” value (96 hr post treatment) of the same compound?
The value was -6.4 mM.

What about the “Body Weight Change (%) 96 hr” value of the same compound?
The value was -3.7*** %.

What does the source list for `CCCC[C@H](NC(=O)[C@@H](NC(=O)[C@H](CO)NC(=O)[C@H](Cc1ccc(O)cc1)NC(=O)[C@H](CC(=O)O)NC(=O)[C@H](CO)NC(=O)[C@@H](NC(=O)[C@H](Cc1ccccc1)NC(=O)[C@@H](NC(=O)CNC(=O)[C@H](CCC(N)=O)NC(=O)C(C)(C)NC(=O)[C@@H](N)Cc1ccc(O)cc1)[C@@H](C)O)[C@@H](C)O)[C@@H](C)CC)C(=O)N[C@@H](CC(C)C)C(=O)N[C@@H](CC(=O)O)C(=O)N[C@@H](CCCCN)C(=O)N[C@@H](CCCCNC(=O)COCCOCCNC(=O)C(C)(C)NC(=O)CC[C@H](NC(=O)CCCCCCCCCCCCCCCCCCC(=O)O)C(=O)O)C(=O)N[C@@H](C)C(=O)N[C@@H](CCC(N)=O)C(=O)NC(C)(C)C(=O)N[C@@H](C)C(=O)N[C@@H](Cc1ccccc1)C(=O)N[C@H](C(=O)N[C@@H](CCC(=O)O)C(=O)N[C@@H](Cc1ccc(O)cc1)C(=O)N[C@@H](CC(C)C)C(=O)N[C@@H](CC(C)C)C(=O)N[C@@H](CCC(=O)O)C(=O)NCC(=O)NCC(=O)N1CCC[C@H]1C(=O)N[C@@H](CO)C(=O)N[C@@H](CO)C(=O)NCC(=O)N[C@@H](C)C(=O)N1CCC[C@H]1C(=O)N1CCC[C@H]1C(=O)N1CCC[C@H]1C(=O)N[C@@H](CO)C(N)=O)[C@@H](C)CC` [Compound 14]?
Cumulative Food Consumption (g) 0-48 hr: 3.0*** g; Cumulative Food Consumption (g) 0-96 hr: 8.3*** g; Delta Blood Glucose (4 hr post treatment): -3.8 mM; Delta Blood Glucose (8 hr post treatment): -3.1 mM; Delta Blood Glucose (12 hr post treatment): -6.2 mM; Delta Blood Glucose (mM) (24 hr post treatment): -9.2** mM; Delta Blood Glucose (mM) (48 hr post treatment): -9.3* mM; Body Weight Change (%) 48 hr: -8.8*** %; Delta Blood Glucose (72 hr post treatment): -7 mM; Delta Blood Glucose (96 hr post treatment): -2.6 mM; Body Weight Change (%) 96 hr: -7.1*** %
